Measurements taken from patent US12174174B2, “Composition comprising material for regulating OCT4 modification to repress stemness” (NATIONAL CANCER CENTER, priority 2018, dated 2024).

Tested on: CSNK2A1
Assay: Doxycycline-dependent shRNA inhibition of CSNK2A1 expression in embryonic stem cell line E14, western blotting
Format: cell-based, mouse
Conditions: E14 cells, lentivirus, FIG. 24
Excerpt: To confirm the relationship between CSNK2A1 and OCT4 phosphorylation using a kinase inducing the phosphorylation of serine 351 of OCT4, a cell line for regulating the inhibition of CSNK2A1 expression was produced. To this end, a lentivirus doxycycline-dependently expressing shRNA of SEQ ID NO: 5 or 6 was produced and transfected into an embryonic stem cell line E14, thereby producing a cell line capable of regulating CSNK2A1 expression using doxycycline.

| Substance | OCT4 phosphorylation after inhibition of CSNK2A1 expression |
| --- | --- |
| shRNA of SEQ ID NO: 5: short hairpin RNA inhibiting CSNK2A1 expression, base sequence of SEQ ID NO: 5 (CCGGCCGAGUUGCUUCUCGAUAUUUCUCGAGAAAUAUCGAGAAGCAACUCGGUUUUG) | a kinase inducing OCT4 phosphorylation is CSNK2A1 |
| shRNA of SEQ ID NO: 6: short hairpin RNA inhibiting CSNK2A1 expression, base sequence of SEQ ID NO: 6 (CCGGACAGACUAUGACAUUCGAUUUCUCGAGAAAUCGAAUGUCAUAGUCUGUUUUUUG) | a kinase inducing OCT4 phosphorylation is CSNK2A1 |
